Assay results from patent US20020065303A1, “Bivalent phenylene inhibitors of factor Xa” (priority 2000, published 2002).

Experiments:
Assay type in all cases: biochemical
Factor Xa = Factor Xa (Homo sapiens, UniProt P00742); test: Factor Xa amidolytic assay (chromogenic substrate S-2765); settings: room temperature, pH 7.5, 5 min preincubation; read-out: Inhibitory Activity (IC50) Factor Xa Xa
Method: (§1) The compounds of the present invention are dissolved in buffer to give solutions containing concentrations such that assay concentrations range from about 0 to about 100 μM. In the assays for thrombin, prothrombinase and factor Xa, a synthetic chromogenic substrate is added to a solution containing test compound and the enzyme of interest and the residual catalytic activity of that enzyme is determined spectrophotometrically. The IC50 of a compound is determined from the substrate turnover. The IC50 is the concentration of test compound giving about 50% inhibition of the substrate turnover.
(§2) The factor Xa and thrombin assays are performed at room temperature, in 0.02 M Tris.HCl buffer, pH 7.5, containing 0.15 M NaCl. The rates of hydrolysis of the para-nitroanilide substrate S-2765 (Chromogenix) for factor Xa, and the substrate Chromozym TH (Boehringer Mannheim) for thrombin following preincubation of the enzyme with inhibitor for 5 minutes at room temperature, and are determined using the Softmax 96-well plate reader (Molecular Devices), monitored at 405 nm to measure the time dependent appearance of p-nitroaniline.

Thrombin = Thrombin (Homo sapiens, UniProt P00734); test: Thrombin amidolytic assay (chromogenic substrate Chromozym TH); settings: room temperature, pH 7.5, 5 min preincubation; read-out: Inhibitory Activity (IC50) Thrombin IIa
Method: as §1, §2

Prothrombinase = Prothrombinase (Homo sapiens, UniProt P00742); test: Prothrombinase inhibition assay, plasma free system; settings: factor Xa 0.5 nM, factor Va 2 nM, PS:PC, 5 min preincubation; read-out: Inhibitory Activity (IC50) Prothrombinase IIase
Prothrombinase, sequence (P00742 235-488 limits assumed): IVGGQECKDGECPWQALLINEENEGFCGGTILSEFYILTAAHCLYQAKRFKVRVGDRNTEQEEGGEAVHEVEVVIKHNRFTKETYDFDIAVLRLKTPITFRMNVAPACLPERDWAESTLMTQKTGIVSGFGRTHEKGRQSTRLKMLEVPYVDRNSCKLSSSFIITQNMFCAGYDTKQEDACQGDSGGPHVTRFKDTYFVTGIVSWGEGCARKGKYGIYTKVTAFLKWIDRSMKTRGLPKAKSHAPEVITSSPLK
Prothrombinase, sequence (P00742 41-179 limits assumed): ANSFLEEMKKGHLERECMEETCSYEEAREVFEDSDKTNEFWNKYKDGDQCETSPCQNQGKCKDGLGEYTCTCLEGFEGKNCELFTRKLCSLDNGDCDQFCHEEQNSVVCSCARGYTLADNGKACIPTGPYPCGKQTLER
Prothrombinase, sequence (P12259 29-737 partner limits assumed): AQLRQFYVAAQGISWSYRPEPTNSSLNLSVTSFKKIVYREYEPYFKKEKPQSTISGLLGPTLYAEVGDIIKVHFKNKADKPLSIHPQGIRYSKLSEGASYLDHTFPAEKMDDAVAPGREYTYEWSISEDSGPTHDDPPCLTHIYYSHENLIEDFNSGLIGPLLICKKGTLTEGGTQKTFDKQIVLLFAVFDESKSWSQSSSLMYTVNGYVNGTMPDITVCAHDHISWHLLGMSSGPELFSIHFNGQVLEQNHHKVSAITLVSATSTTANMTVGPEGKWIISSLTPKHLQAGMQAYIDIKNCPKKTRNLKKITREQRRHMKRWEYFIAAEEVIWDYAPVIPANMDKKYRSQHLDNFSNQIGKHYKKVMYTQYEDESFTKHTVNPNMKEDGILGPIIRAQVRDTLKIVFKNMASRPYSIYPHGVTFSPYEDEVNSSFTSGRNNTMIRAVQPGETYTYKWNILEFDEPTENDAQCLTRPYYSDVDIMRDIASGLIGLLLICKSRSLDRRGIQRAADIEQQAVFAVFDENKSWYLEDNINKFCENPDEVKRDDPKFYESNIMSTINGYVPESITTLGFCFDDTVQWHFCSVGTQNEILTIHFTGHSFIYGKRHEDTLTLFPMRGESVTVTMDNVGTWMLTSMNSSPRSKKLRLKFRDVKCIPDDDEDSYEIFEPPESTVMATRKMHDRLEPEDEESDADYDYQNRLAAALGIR
Prothrombinase, sequence (P12259 1574-2224 partner limits assumed): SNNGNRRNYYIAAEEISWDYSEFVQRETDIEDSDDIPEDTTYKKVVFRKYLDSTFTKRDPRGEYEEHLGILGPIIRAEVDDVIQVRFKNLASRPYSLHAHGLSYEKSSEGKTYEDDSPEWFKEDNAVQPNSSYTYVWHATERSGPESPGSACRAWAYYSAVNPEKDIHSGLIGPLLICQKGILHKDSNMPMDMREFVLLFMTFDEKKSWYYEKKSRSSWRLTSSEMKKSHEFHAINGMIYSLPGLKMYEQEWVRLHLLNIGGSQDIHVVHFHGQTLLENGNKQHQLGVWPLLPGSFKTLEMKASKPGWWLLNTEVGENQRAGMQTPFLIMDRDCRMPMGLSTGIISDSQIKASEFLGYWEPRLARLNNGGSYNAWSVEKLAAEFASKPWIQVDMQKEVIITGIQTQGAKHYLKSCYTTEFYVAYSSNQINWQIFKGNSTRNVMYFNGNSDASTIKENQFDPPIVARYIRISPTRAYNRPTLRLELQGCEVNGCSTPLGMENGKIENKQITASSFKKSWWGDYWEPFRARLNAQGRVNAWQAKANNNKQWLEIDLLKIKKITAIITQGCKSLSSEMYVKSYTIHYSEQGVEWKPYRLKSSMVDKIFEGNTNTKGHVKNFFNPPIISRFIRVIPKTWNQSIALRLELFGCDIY
Method: as §1
The prothrombinase inhibition assay is performed in a plasma free system with modifications to the method described by Sinha, U. et al., Thromb. Res., 75, 427-436 (1994). Specifically, the activity of the prothrombinase complex is determined by measuring the time course of thrombin generation using the p-nitroanilide substrate Chromozym TH. The assay consists of preincubation (5 minutes) of selected compounds to be tested as inhibitors with the complex formed from factor Xa (0.5 nM), factor Va (2 nM), phosphatidyl serine:phosphatidyl choline (25:75, 20 μM) in 20 mM Tris.HCl buffer, pH 7.5, containing 0.15 M NaCl, 5 mM CaCl2 and 0.1% bovine serum albumin. […] The rate of substrate cleavage is monitored at 405 nm for two minutes. […]

Factor Xa, sequence (P00742 235-488 limits assumed): as the sequence (P00742 235-488 limits assumed) above
Factor Xa, sequence (P00742 41-179 limits assumed): as the sequence (P00742 41-179 limits assumed) above

| IC50 (Factor Xa) [µM] | IC50 (Thrombin) [µM] | IC50 (Prothrombinase) [µM] | SMILES |
| --- | --- | --- | --- |
| 0.059 | 139 | 20 | CC(=N)N1CCC(Oc2ccc(C(=O)NCc3cccc(C(=N)N)c3)cc2)CC1 |
| 0.201 | 270 | 4 | COC(=O)C(Cc1cccc(C(=N)N)c1)NC(=O)c1ccc(OC2CCN(C(C)=N)CC2)cc1 (stereo not drawn) |
